Reference: patent publication US11154060B2, “Microbiocidal oxadiazole derivatives” (SYNGENTA PARTICIPATIONS AG, priority 2016, dated 2021)

How the values were obtained:
Phakopsora pachyrhizi = Phakopsora pachyrhizi / soybean / leaf disc preventative (Asian soybean rust); format: in vivo; settings: foliar, soybean leaf disks, inoculated one day after application, assessed 12-14 days after application, read-out: control of Phakopsora pachyrhizi compared to untreated control
Experimental: Leaf disks or leaf segments of various plant species are cut from plants grown in a greenhouse. The cut leaf disks or segments are placed in multiwell plates (24-well format) onto water agar. The leaf disks are sprayed with a test solution before (preventative) or after (curative) inoculation. Compounds to be tested are prepared as DMSO solutions (max. 10 mg/ml) which are diluted to the appropriate concentration with 0.025% Tween20 just before spraying. The inoculated leaf disks or segments are incubated under defined conditions (temperature, relative humidity, light, etc.) according to the respective test system. A single evaluation of disease level is carried out 3 to 14 days after inoculation, depending on the pathosystem. Percent disease control relative to the untreated check leaf disks or segments is then calculated. Soybean leaf disks are placed on water agar in multiwell plates (24-well format) and sprayed with the formulated test compound diluted in water. One day after application leaf discs are inoculated by spraying a spore suspension on the lower leaf surface. After an incubation period in a climate cabinet of 24-36 hours in darkness at 20° C. and 75% rh leaf disc are kept at 20° C. with 12 h light/12 h darkness and 75% rh. The activity of a compound is assessed as percent disease control compared to untreated when an appropriate level of disease damage appears in untreated check leaf disks (12-14 days after application).

Uromyces viciae-fabae = Uromyces viciae-fabae / field bean / leaf disc preventative (faba-bean rust); format: in vivo; settings: foliar, 288 h, 100 ppm in the applied formulation, field bean leaf discs, inoculated two hours after application, 12 days after application, read-out: disease control compared to untreated control leaf discs
Experimental: Leaf disks or leaf segments of various plant species are cut from plants grown in a greenhouse. The cut leaf disks or segments are placed in multiwell plates (24-well format) onto water agar. The leaf disks are sprayed with a test solution before (preventative) or after (curative) inoculation. Compounds to be tested are prepared as DMSO solutions (max. 10 mg/ml) which are diluted to the appropriate concentration with 0.025% Tween20 just before spraying. The inoculated leaf disks or segments are incubated under defined conditions (temperature, relative humidity, light, etc.) according to the respective test system. A single evaluation of disease level is carried out 3 to 14 days after inoculation, depending on the pathosystem. Percent disease control relative to the untreated check leaf disks or segments is then calculated. Field bean leaf discs are placed on water agar in multiwell plates (96-well format) and 10 μl of the formulated test compound diluted in acetone and a spreader pipetted onto the leaf disc. Two hours after application leaf discs are inoculated by spraying a spore suspension on the lower leaf surface. The leaf discs are incubated in a climate cabinet at 22° C. with 18 hour day and 70% relative humidity. The activity of a compound is assessed as percent disease control compared to untreated when an appropriate level of disease damage appears in untreated check leaf disks (12 days after application).

[1] = test system: Puccinia recondita f. sp. tritici; experiment: Puccinia recondita f. sp. tritici / wheat / leaf disc curative (brown rust); format: in vivo; settings: foliar, wheat leaf segments cv. Kanzler, applied 1 day after inoculation, assessed 6-8 days after application, read-out: control of Puccinia recondita f. sp. tritici compared to untreated control
Experimental: Leaf disks or leaf segments of various plant species are cut from plants grown in a greenhouse. The cut leaf disks or segments are placed in multiwell plates (24-well format) onto water agar. The leaf disks are sprayed with a test solution before (preventative) or after (curative) inoculation. Compounds to be tested are prepared as DMSO solutions (max. 10 mg/ml) which are diluted to the appropriate concentration with 0.025% Tween20 just before spraying. The inoculated leaf disks or segments are incubated under defined conditions (temperature, relative humidity, light, etc.) according to the respective test system. A single evaluation of disease level is carried out 3 to 14 days after inoculation, depending on the pathosystem. Percent disease control relative to the untreated check leaf disks or segments is then calculated. Wheat leaf segments cv. Kanzler are placed on agar in multiwell plates (24-well format). The leaf segments are inoculated with a spore suspension of the fungus. Plates are stored in darkness at 19° C. and 75% rh. The formulated test compound diluted in water is applied 1 day after inoculation. The leaf segments are incubated at 19° C. and 75% rh under a light regime of 12 h light/12 h darkness in a climate cabinet and the activity of a compound is assessed as percent disease control compared to untreated when an appropriate level of disease damage appears in untreated check leaf segments (6-8 days after application).

[2] = test system: Puccinia recondita f. sp. tritici; experiment: Puccinia recondita f. sp. tritici / wheat / leaf disc preventative (brown rust); format: in vivo; settings: foliar, wheat leaf segments cv. Kanzler, inoculated 1 day after application, assessed 7-9 days after application, read-out: control of Puccinia recondita f. sp. tritici compared to untreated control
Experimental: Leaf disks or leaf segments of various plant species are cut from plants grown in a greenhouse. The cut leaf disks or segments are placed in multiwell plates (24-well format) onto water agar. The leaf disks are sprayed with a test solution before (preventative) or after (curative) inoculation. Compounds to be tested are prepared as DMSO solutions (max. 10 mg/ml) which are diluted to the appropriate concentration with 0.025% Tween20 just before spraying. The inoculated leaf disks or segments are incubated under defined conditions (temperature, relative humidity, light, etc.) according to the respective test system. A single evaluation of disease level is carried out 3 to 14 days after inoculation, depending on the pathosystem. Percent disease control relative to the untreated check leaf disks or segments is then calculated. Wheat leaf segments cv. Kanzler are placed on agar in multiwell plates (24-well format) and sprayed with the formulated test compound diluted in water. The leaf disks are inoculated with a spore suspension of the fungus 1 day after application. The inoculated leaf segments are incubated at 19° C. and 75% rh under a light regime of 12 h light/12 h darkness in a climate cabinet and the activity of a compound is assessed as percent disease control compared to untreated when an appropriate level of disease damage appears in untreated check leaf segments (7-9 days after application).

[3] = test system: Glomerella lagenarium (Colletotrichum lagenarium); experiment: Glomerella lagenarium (Colletotrichum lagenarium) liquid culture / cucumber / preventative (anthracnose); format: cell-based; settings: Colletotrichum orbiculare, liquid culture in PDB, 24° C., 3-4 days after application, read-out: control of Glomerella lagenarium compared to untreated control (inhibition of growth, photometric)
Experimental: Mycelia fragments or conidia suspensions of a fungus prepared either freshly from liquid cultures of the fungus or from cryogenic storage, are directly mixed into nutrient broth. DMSO solutions of the test compound (max. 10 mg/ml) are diluted with 0.025% Tween20 by a factor of 50 and 10 μl of this solution is pipetted into a microtiter plate (96-well format). The nutrient broth containing the fungal spores/mycelia fragments is then added to give an end concentration of the tested compound. The test plates are incubated in the dark at 24° C. and 96% relative humidity. The inhibition of fungal growth is determined photometrically after 2 to 7 days, depending on the pathosystem, and percent antifungal activity relative to the untreated check is calculated. Conidia of the fungus from cryogenic storage are directly mixed into nutrient broth (PDB potato dextrose broth). After placing a (DMSO) solution of test compound into a microtiter plate (96-well format), the nutrient broth containing the fungal spores is added. The test plates are incubated at 24° C. and the inhibition of growth is measured photometrically 3-4 days after application.

COC(=O)C1(N(O)C(=O)c2ccc(-c3noc(C(F)(F)F)n3)cc2F)CCN(OC)CC1 [Compound 1.5, methyl 4-[[2-fluoro-4-[5-(trifluoromethyl)-1,2,4-oxadiazol-3-yl]benzoyl]-hydroxy-amino]-1-methoxy-piperidine-4-carboxylate]
≥ 80%: pest or weed control at 200 ppm (Phakopsora pachyrhizi) | pest or weed control at 100 ppm (Uromyces viciae-fabae) | pest or weed control at 200 ppm [1] | pest or weed control at 200 ppm [2] | inhibition at 20 ppm [3]

CON(Cc1ccccc1)C(=O)c1ccc(-c2noc(C(F)(F)F)n2)cc1F [Compound 1.6, N-benzyl-2-fluoro-N-methoxy-4-[5-(trifluoromethyl)-1,2,4-oxadiazol-3-yl]benzamide]
≥ 80%: pest or weed control at 200 ppm (Phakopsora pachyrhizi) | pest or weed control at 100 ppm (Uromyces viciae-fabae) | pest or weed control at 200 ppm [1] | pest or weed control at 200 ppm [2] | inhibition at 20 ppm [3]

CON(Cc1ccco1)C(=O)c1ccc(-c2noc(C(F)(F)F)n2)cc1F [Compound 1.7, 2-fluoro-N-(2-furylmethyl)-N-methoxy-4-[5-(trifluoromethyl)-1,2,4-oxadiazol-3-yl]benzamide]
≥ 80%: pest or weed control at 200 ppm (Phakopsora pachyrhizi) | pest or weed control at 100 ppm (Uromyces viciae-fabae) | pest or weed control at 200 ppm [1] | pest or weed control at 200 ppm [2] | inhibition at 20 ppm [3]

CON(CC1CC1)C(=O)c1ccc(-c2noc(C(F)(F)F)n2)cc1F [Compound 1.8, N-(cyclopropylmethyl)-2-fluoro-N-methoxy-4-[5-(trifluoromethyl)-1,2,4-oxadiazol-3-yl]benzamide]
≥ 80%: pest or weed control at 200 ppm (Phakopsora pachyrhizi) | pest or weed control at 100 ppm (Uromyces viciae-fabae) | pest or weed control at 200 ppm [1] | pest or weed control at 200 ppm [2] | inhibition at 20 ppm [3]

C#CCN(OC)C(=O)c1ccc(-c2noc(C(F)(F)F)n2)cc1F [Compound 1.10, 2-fluoro-N-methoxy-N-prop-2-ynyl-4-[5-(trifluoromethyl)-1,2,4-oxadiazol-3-yl]benzamide]
≥ 80%: pest or weed control at 200 ppm (Phakopsora pachyrhizi) | pest or weed control at 100 ppm (Uromyces viciae-fabae) | pest or weed control at 200 ppm [1] | pest or weed control at 200 ppm [2] | inhibition at 20 ppm [3]

CON(CC(=O)NC(C)(C)C)C(=O)c1ccc(-c2noc(C(F)(F)F)n2)cc1 [Compound 2.2, N-[2-(tert-butylamino)-2-oxo-ethyl]-N-methoxy-4-[5-(trifluoromethyl)-1,2,4-oxadiazol-3-yl]benzamide]
≥ 80%: pest or weed control at 200 ppm (Phakopsora pachyrhizi) | pest or weed control at 100 ppm (Uromyces viciae-fabae) | pest or weed control at 200 ppm [1] | pest or weed control at 200 ppm [2] | inhibition at 20 ppm [3]

O=C(NO)c1ccc(-c2noc(C(F)(F)F)n2)cc1 [Compound 2.4, 4-[5-(trifluoromethyl)-1,2,4-oxadiazol-3-yl]benzenecarbohydroxamic acid]
≥ 80%: pest or weed control at 200 ppm (Phakopsora pachyrhizi) | pest or weed control at 100 ppm (Uromyces viciae-fabae) | pest or weed control at 200 ppm [1] | pest or weed control at 200 ppm [2] | inhibition at 20 ppm [3]

CON(Cc1ccccc1)C(=O)c1ccc(-c2noc(C(F)(F)F)n2)cc1 [Compound 2.5, N-benzyl-N-methoxy-4-[5-(trifluoromethyl)-1,2,4-oxadiazol-3-yl]benzamide]
≥ 80%: pest or weed control at 200 ppm (Phakopsora pachyrhizi) | pest or weed control at 100 ppm (Uromyces viciae-fabae) | pest or weed control at 200 ppm [1] | pest or weed control at 200 ppm [2] | inhibition at 20 ppm [3]

C#CCN(OC)C(=O)c1ccc(-c2noc(C(F)(F)F)n2)cc1 [Compound 2.6, N-methoxy-N-prop-2-ynyl-4-[5-(trifluoromethyl)-1,2,4-oxadiazol-3-yl]benzamide]
≥ 80%: pest or weed control at 200 ppm (Phakopsora pachyrhizi) | pest or weed control at 100 ppm (Uromyces viciae-fabae) | pest or weed control at 200 ppm [1] | pest or weed control at 200 ppm [2] | inhibition at 20 ppm [3]

CON(CC=C(Cl)Cl)C(=O)c1ccc(-c2noc(C(F)(F)F)n2)cc1 [Compound 2.7, N-(3,3-dichloroallyl)-N-methoxy-4-[5-(trifluoromethyl)-1,2,4-oxadiazol-3-yl]benzamide]
≥ 80%: pest or weed control at 200 ppm (Phakopsora pachyrhizi) | pest or weed control at 100 ppm (Uromyces viciae-fabae) | pest or weed control at 200 ppm [1] | pest or weed control at 200 ppm [2] | inhibition at 20 ppm [3]
